Results on three compounds are retold here after publication doi:10.1101/2022.05.04.490172v1 (biorxiv, 2022).

The target in test [1] is T1, BRN2 (POU3F2), purified BRN2^WT (Homo sapiens, UniProt P20265).
T1 sequence (P20265 264-415): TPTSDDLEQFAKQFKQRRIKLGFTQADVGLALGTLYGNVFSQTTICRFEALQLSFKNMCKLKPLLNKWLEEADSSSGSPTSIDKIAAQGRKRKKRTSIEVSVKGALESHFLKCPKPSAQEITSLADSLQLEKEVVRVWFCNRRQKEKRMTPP
In words: microscale thermophoresis. The format is binding. (Microscale thermophoresis detects binding through changes in fluorescence in a small temperature gradient.)

Test [2] deals with BRN2 (POU3F2), luciferase reporter assay. In words: cells. Particulars: for inhibition at 10 µM: read-out: % of Inhibition (Luciferase assay) / 10µM; for inhibition at 30 µM: read-out: % of Inhibition (Luciferase assay) / 30µM.

Molecules are shown by their SMILES.

Consider `Clc1ccc2cc(-c3csc(-c4ccc[nH]4)n3)oc2c1` [B18-94], for which, in test [1], binding was characterised by a dissociation constant (Kd) of 2.04 µM. Take `COc1ccc(/C=N\Nc2nc3ccccc3[nH]2)cc1O` [B-65]: in test [2], the inhibition at 10 µM stood at 31% and the inhibition at 30 µM turned out to be 51%. As to `O=C(CSc1nc2ccccc2[nH]1)c1ccc(Cl)cc1` [B-16], in test [2], the inhibition at 10 µM worked out at 20.8% and the inhibition at 30 µM is 44.7%.
